# Columns and labels:
# Format in all cases: cell-based
# [1] = tested on: Nf1^−/− DNSCs; test: DNSC proliferation and viability, CellTiter-Glo Assay; details: cells Nf1−/−; 48 hrs incubation; serially diluted from 105 μM
# Protocol: (§1) Nf1-Ink4a/Arf mutant DNSCs have increased cell cycle activity and proliferation in vitro, consistent with the in vivo phenotypes. The present study utilizes Nf1^−/− and Nf1^−/−; Ink4a/Arf^+/− mutant DNSCs obtained by transient infection of Nf1^flox/flox and Nf1^flox/flox; Ink4a/Arf^flox/+ DNSCs with an adenovirus carrying Cre recombinase. Selectivity of nitroxilone was compared between Nf1^−/− and Nf1^−/−; Ink4a/Arf^+/− DNSCs.
# (§2) Nf1^−/− and Nf1^−/−; Ink4a/Arf^+/− DNSCs described above were treated with serially diluted nitroxoline starting from 105 μM and incubated for 48 hrs. After the incubation period, proliferation, viability and apoptosis assays were performed as described below: • DNSC proliferation and viability was assessed using the CellTiter-Glo Assay (Promega) which measures […]. […] After 10 minutes, the plates were read using a 96-well microplate luminometer. • To assess cellular apoptosis, the Caspase-Glo 3/7 kit (Promega) was utilized according to the manufacturer's instructions. […] After 10 minutes, plates were read using a 96 well luminometer to measure caspase 3/7 activity.
# [2] = tested on: Nf1^−/−; Ink4a/Arf^+/− DNSCs; test: as above; details: cells Nf1−/−, 48 hrs incubation, serially diluted from 105 μM
# Protocol: as §1, §2
# [3] = tested on: Nf1^−/− DNSCs; test: Cellular apoptosis, Caspase-Glo 3/7 kit (caspase 3/7 activity); details: nf1−/− cells; 48 hrs incubation; serially diluted from 105 μM
# Protocol: as §1, §2
# [4] = tested on: Nf1^−/−; Ink4a/Arf^+/− DNSCs; test: as above; details: cells Nf1−/−, 48 hrs incubation, serially diluted from 105 μM
# Protocol: as §1, §2
smiles,measurement,setting,value
"O=[N+]([O-])c1ccc(O)c2ncccc12 [Nitroxoline, 5-nitroquinolin-8-ol]",concentrations at which the antiproliferative effect was observed,[1],greater than 10 μM
same,concentrations at which the antiproliferative effect was observed,[2],greater than 3 μM
same,concentrations at which the induction of apoptosis was evident,[3],30 to 100 µM
same,concentrations at which the induction of apoptosis was evident,[4],greater than 10 μM
